This is an account of results in the RepoRT retention time repository (doi:10.1021/acs.analchem.2c02893).

Common to all, as to details: stereoisomer not certain
A short description of data set [1]: RP, Thermo Scientific Acclaim RSLC 120 C18, 100 × 2.1 mm, 2.2 µm, 30 °C, 0.2 mL/min, estimated dead time 1.1 min; A: water + 0.1% formic acid, pH 2.6; B: methanol + 0.1% formic acid, pH 2.6; gradient (min/%B) 0/10 4/50 17/95 25/95 25.1/10 30/10.
Data set [2] in a line: RP, Waters ACQUITY UPLC BEH C18, 100 × 2.1 mm, 1.7 µm, 30 °C, 0.35 mL/min, estimated dead time 0.63 min; A: water + 0.01% formic acid + 5 mM ammonium formate, pH 3.71; B: acetonitrile + 0.01% formic acid, pH 3.71; gradient (min/%B) 0/10 3/10 22/100 30/100 30.1/10 40/10.
The nature of data set [3]: RP, Waters ACQUITY UPLC BEH C18, 100 × 2.1 mm, 1.7 µm, 35 °C, 0.35 mL/min, estimated dead time 0.63 min; A: water + 0.01% formic acid + 5 mM ammonium formate, pH 3.71; B: acetonitrile + 0.01% formic acid, pH 3.71; gradient (min/%B) 0/5 0.5/5 16/95 16.1/99 19/99 19.1/5 21/5.
Data set [4] is described as follows: RP, Thermo Scientific Acclaim RSLC 120 C18, 100 × 2.1 mm, 2.2 µm, 30 °C, 0.2 mL/min, estimated dead time 1.1 min; A: 90% water + 10% methanol + 0.01% formic acid + 5 mM ammonium formate, pH 3.61; B: methanol + 0.01% formic acid + 5 mM ammonium formate, pH 3.61; gradient (min/%B) 0/1 1/1 2/39 13/99.9 15/99.9 15.1/1 20.1/1.

Turning to `COC1C=COC2(C)Oc3c(C)c(O)c4c(O)c(c5c(nc6cc(C)ccn65)c4c3C2=O)NC(=O)C(C)=CC=CC(C)C(O)C(C)C(O)C(C)C(OC(C)=O)C1C` (stereo not given) [Rifaximin], the LC retention time in data set [1] was 12.5 min; in data set [2] it was 13 min; in data set [3], 9.87 min; in data set [4], 10.1 min.
For the compound `C=CC(N)CCC(=O)O` (stereo not given) [Vigabatrin], the LC retention time in data set [1] was 1.34 min; in data set [2], 0.81 min; in data set [3] it was 0.83 min; in data set [4], 1.38 min.
Consider `COc1cc2c(c(OC)c1OC)-c1ccc(OC)c(=O)cc1C(NC(C)=O)CC2` (stereo not given) [Colchicine], for which the LC retention time in data set [1] was 7.17 min; in data set [2], 8.29 min; in data set [3] it was 5.99 min; in data set [4] it was 6.43 min.
`NC(=O)c1cccnc1` [Nicotinamide]: the LC retention time in data set [1] is 1.69 min; in data set [2], 1.06 min; in data set [3], 1.2 min; in data set [4], 2.73 min.
As to `CC(=O)Nc1ccc(O)cc1` [Paracetamol], the LC retention time was 3.52 min in data set [1], 1.59 min in data set [2], 2 min in data set [3] and 3.48 min in data set [4].
`CCC(C)OC(=O)N1CCCCC1CCO` (stereo not given) [Picaridin (Icaridin)]: the LC retention time in data set [1] is 10.7 min; in data set [2] it was 10.8 min; in data set [3] it was 8.16 min; in data set [4], 8.83 min.
For `COP(=O)(OC)OC=C(Cl)Cl` [Dichlorvos], the LC retention time in data set [1] is 8.02 min; in data set [2] it was 9.14 min; in data set [3], 6.79 min; in data set [4], 7 min.
As for `Nc1nc(N)nc(NC2CC2)n1` [Cyromazine], the LC retention time is 2.06 min in data set [1], 1.06 min in data set [2], 1.23 min in data set [3] and 2.78 min in data set [4].
Take `CCN(CC)C(=O)Nc1ccc(OCC(O)CNC(C)(C)C)c(C(C)=O)c1` (stereo not given) [Celiprolol]: the LC retention time in data set [1] is 5.29 min; in data set [2] it was 7.46 min; in data set [3] it was 5.34 min; in data set [4], 5.24 min.
For the compound `CCOC(=O)c1ccccc1C(=O)OCC` [Phthalate-Diethyl], the LC retention time in data set [1] was 10.2 min; in data set [2], 12.2 min; in data set [3] it was 9.21 min; in data set [4] it was 8.5 min.
For `COCC(NC(C)=O)C(=O)NCc1ccccc1` (stereo not given) [Lacosamide], the LC retention time is 5.79 min in data set [1], 5.76 min in data set [2], 4.46 min in data set [3] and 5.09 min in data set [4].
As for `CC12CCC(O)CC1CCC1C2C(=O)CC2(C)C1CCC2(O)C(=O)CO` (stereo not given), the LC retention time in data set [1] is 11.2 min; in data set [2] it was 9.93 min; in data set [3] it was 7.37 min; in data set [4], 9.21 min.
In the case of `CN1CCC23c4c5ccc(O)c4OC2C(O)C=CC3C1C5` (stereo not given) [Morphine (MOR)], the LC retention time in data set [1] was 2.11 min; in data set [2] it was 1.21 min; in data set [3], 1.47 min; in data set [4], 2.54 min.
For `CCNCC(=O)Nc1c(C)cccc1C` [Lidocaine-Nor] the same measures were 3.97 min, 3.59 min, 3.56 min and 4.33 min.
Turning to `CC(N)C12CC3CC(CC(C3)C1)C2` (stereo not given) [Rimantadin], the LC retention time in data set [1] is 6.34 min; in data set [2] it was 7.89 min; in data set [3] it was 5.86 min; in data set [4], 6.71 min.
Turning to `Cn1c(=O)c2c(ncn2C)n(C)c1=O` [Caffeine], the LC retention time in data set [1] is 4.69 min; in data set [2] it was 2.43 min; in data set [3], 3.08 min; in data set [4] it was 4.23 min.
Consider `Nc1ncnc2c1ncn2C1OC(CO)C(O)C1O` (stereo not given) [Adenosine], for which the LC retention time in data set [1] is 2.13 min; in data set [2] it was 1.31 min; in data set [3] it was 1.27 min; in data set [4], 3.14 min.
As for `NC(=O)c1ccccc1Oc1ccccc1` [Phenoxybenzamide], the LC retention time in data set [1] is 9.15 min; in data set [2], 11.5 min; in data set [3] it was 8.66 min; in data set [4], 7.79 min.
As to `C1=CCC(c2cccnc2)NC1` (stereo not given) [Anatabine], the LC retention time in data set [1] is 3.66 min; in data set [2], 1.08 min; in data set [3], 1.27 min; in data set [4] it was 2.68 min.
Turning to `N#CC1CCCN1C(=O)CNC12CC3CC(CC(O)(C3)C1)C2` (stereo not given) [Vildagliptin], the LC retention time is 2.81 min in data set [1], 1.89 min in data set [2], 2.68 min in data set [3] and 3.26 min in data set [4].
For `COCCc1ccc(OCC(O)CNC(C)C)cc1` (stereo not given) [Metoprolol], the LC retention time was 4.94 min in data set [1], 6.53 min in data set [2], 4.79 min in data set [3] and 4.93 min in data set [4].
On to `CN1CCCC1c1cccnc1` (stereo not given) [Nicotine], for which the LC retention time in data set [1] was 1.34 min; in data set [2] it was 1.03 min; in data set [3], 1.17 min; in data set [4] it was 2.41 min.
In the case of `CCC(C(N)=O)N1CCCC1=O` (stereo not given) [Levetiracetam], the LC retention time was 3.89 min in data set [1], 1.68 min in data set [2], 2.43 min in data set [3] and 3.74 min in data set [4].
With `CCOc1ccc(NC(C)=O)cc1` [Phenacetin], the LC retention time in data set [1] is 6.82 min; in data set [2] it was 7.53 min; in data set [3] it was 5.58 min; in data set [4] it was 5.93 min.
Take `CC(N)Cc1ccccc1` (stereo not given) [Amphetamine]: the LC retention time in data set [1] was 3.86 min; in data set [2], 2.99 min; in data set [3] it was 3.28 min; in data set [4], 4.16 min.
As for `CC1CCc2cc(F)cc3c(=O)c(C(=O)O)cn1c23` (stereo not given) [Flumequine], the LC retention time is 8.57 min in data set [1], 9.84 min in data set [2], 7.28 min in data set [3] and 7.46 min in data set [4].
In the case of `CC(C)Cc1ccc(C(C)C(=O)O)cc1` (stereo not given) [Ibuprofen], the LC retention time was 13.1 min in data set [1], 14 min in data set [2], 10.7 min in data set [3] and 10.7 min in data set [4].
In the case of `COc1ccc(Cc2cnc(N)nc2N)cc1OC` [Diaveridine], the LC retention time in data set [1] is 3.67 min; in data set [2], 3.36 min; in data set [3], 3.48 min; in data set [4], 3.88 min.
Take `COP(N)(=O)SC` (stereo not given) [Methamidophos]: the LC retention time is 2.61 min in data set [1], 1.18 min in data set [2], 1.34 min in data set [3] and 2.76 min in data set [4].
For `CCN1CCN(C(=O)NC(C(=O)NC2C(=O)N3C(C(=O)O)=C(CSc4nnnn4C)CSC23)c2ccc(O)cc2)C(=O)C1=O` (stereo not given) [Cefoperazone] the same measures were 5.37 min, 6.08 min, 4.19 min and 4.36 min.
